Data: US20260297081A1, “COMPOUNDS AND METHODS OF TREATING CANCERS” (Cullgen Inc., priority 2023, published 2026)

Biological target: CDK4 (Homo sapiens, UniProt P11802+Q16531)
Assay: CDK4 percentage degradation in Calu-1 cells (Table 6)
Type: cell-based
Design: Cells that express cyclin D1-3 and CDK4/6 proteins were treated with heterobifunctional compounds; endogenous in cells; host or cells: Calu-1
Settings: 16 hours; for inhibition at 0.04 µM: 40 nM; for inhibition at 0.2 µM: 200 nM
Summary of the method: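 Calu-1 cells exposed to heterobifunctional compounds at 40 nM or 200 nM for 16 h. Cyclin D1 and CDK4 levels measured by Western blot of RIPA lysates (BCA-normalised loading), bands quantified by densitometry and expressed as percentage degradation.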

Sequence of CDK4 (P11802 2-303 limits assumed): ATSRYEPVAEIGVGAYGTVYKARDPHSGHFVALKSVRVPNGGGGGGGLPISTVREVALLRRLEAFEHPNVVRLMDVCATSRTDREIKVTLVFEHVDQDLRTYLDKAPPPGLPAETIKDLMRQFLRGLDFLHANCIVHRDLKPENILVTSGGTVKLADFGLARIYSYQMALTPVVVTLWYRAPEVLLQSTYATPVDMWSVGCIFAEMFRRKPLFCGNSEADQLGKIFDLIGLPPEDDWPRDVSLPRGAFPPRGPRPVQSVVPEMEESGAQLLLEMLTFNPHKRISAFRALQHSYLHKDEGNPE
Sequence of CDK4 (P24385 whole entry partner): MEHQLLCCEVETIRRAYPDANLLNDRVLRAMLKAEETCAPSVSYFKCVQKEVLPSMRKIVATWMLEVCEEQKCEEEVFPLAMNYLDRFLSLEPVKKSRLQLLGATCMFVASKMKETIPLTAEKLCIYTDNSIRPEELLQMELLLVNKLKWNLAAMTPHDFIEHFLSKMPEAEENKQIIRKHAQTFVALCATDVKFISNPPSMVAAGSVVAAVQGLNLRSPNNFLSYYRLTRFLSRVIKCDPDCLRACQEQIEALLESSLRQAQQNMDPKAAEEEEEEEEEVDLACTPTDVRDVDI
Sequence of CDK4 (Q16531 2-1140 limits assumed): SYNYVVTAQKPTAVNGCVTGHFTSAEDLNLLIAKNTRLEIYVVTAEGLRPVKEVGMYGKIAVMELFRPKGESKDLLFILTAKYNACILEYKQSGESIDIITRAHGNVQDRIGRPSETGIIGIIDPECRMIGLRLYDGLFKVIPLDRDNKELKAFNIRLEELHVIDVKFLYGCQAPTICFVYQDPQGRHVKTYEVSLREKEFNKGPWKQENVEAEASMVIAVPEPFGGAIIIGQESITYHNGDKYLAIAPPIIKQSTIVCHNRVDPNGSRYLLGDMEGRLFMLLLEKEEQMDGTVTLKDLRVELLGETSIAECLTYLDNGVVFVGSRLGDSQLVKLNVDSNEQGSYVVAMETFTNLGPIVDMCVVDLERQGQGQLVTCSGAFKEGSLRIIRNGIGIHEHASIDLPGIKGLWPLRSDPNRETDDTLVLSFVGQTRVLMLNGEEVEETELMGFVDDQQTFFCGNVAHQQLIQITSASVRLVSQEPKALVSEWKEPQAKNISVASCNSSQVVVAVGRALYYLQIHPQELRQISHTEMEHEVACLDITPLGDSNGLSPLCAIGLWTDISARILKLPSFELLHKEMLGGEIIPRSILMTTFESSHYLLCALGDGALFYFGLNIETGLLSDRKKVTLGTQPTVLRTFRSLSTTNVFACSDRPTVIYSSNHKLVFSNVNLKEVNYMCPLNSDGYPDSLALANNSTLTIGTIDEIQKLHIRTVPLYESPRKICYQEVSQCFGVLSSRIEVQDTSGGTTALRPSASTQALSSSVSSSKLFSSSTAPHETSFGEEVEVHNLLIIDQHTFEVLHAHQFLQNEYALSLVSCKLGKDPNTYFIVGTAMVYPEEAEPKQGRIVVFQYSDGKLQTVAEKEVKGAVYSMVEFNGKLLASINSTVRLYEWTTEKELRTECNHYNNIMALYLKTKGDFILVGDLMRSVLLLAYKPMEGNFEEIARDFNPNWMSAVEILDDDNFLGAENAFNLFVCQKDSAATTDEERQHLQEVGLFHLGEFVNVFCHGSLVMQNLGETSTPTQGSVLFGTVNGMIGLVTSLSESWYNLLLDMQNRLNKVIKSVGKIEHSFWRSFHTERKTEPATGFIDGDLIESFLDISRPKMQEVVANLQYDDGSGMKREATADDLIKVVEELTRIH

An inhibition at 0.04 µM of 30 to 50% and an inhibition at 0.2 µM of 50 to 80% were found for `CNc1ccc(C(=O)Nc2cc(C3CC3)n(C)n2)c(NC2CC3(CC(NC(=O)CN4CCN(c5ccc(Nc6ncc7c(C)c(C(C)=O)c(=O)n(C8CCCC8)c7n6)nc5)CC4)C3)C2)n1` (stereo not drawn) [CPD-98, 2-((6-(2-(4-(6-((6-Acetyl-8-cyclopentyl-5-methyl-7-oxo-7,8-dihydropyrido[2,3-d]pyrimidin-2-yl)amino)pyridin-3-yl)piperazin-1-yl)acetamido)spiro[3.3]heptan-2-yl)amino)-N-(5-cyclopropyl-1-methyl-1H-pyrazol-3-yl)-6-(methylamino)nicotinamide] in this work.
An inhibition at 0.04 µM of 30 to 50% and an inhibition at 0.2 µM of 50 to 80% were found for `CNc1ccc(C(=O)Nc2cc(C)n(C(C)C)n2)c(NC2CC3(CC(NC(=O)CN4CCN(c5ccc(Nc6ncc7c(C)c(C(C)=O)c(=O)n(C8CCCC8)c7n6)nc5)CC4)C3)C2)n1` (stereo not drawn) [CPD-99, 2-((6-(2-(4-(6-((6-Acetyl-8-cyclopentyl-5-methyl-7-oxo-7,8-dihydropyrido[2,3-d]pyrimidin-2-yl)amino)pyridin-3-yl)piperazin-1-yl)acetamido)spiro[3.3]heptan-2-yl)amino)-N-(1-isopropyl-5-methyl-1H-pyrazol-3-yl)-6-(methylamino)nicotinamide] in this work.
An inhibition at 0.04 µM of less than 30% and an inhibition at 0.2 µM of 50 to 80% were found for `CNc1ccc(C(=O)Nc2cc[nH]n2)c(NC2CC3(CC(NC(=O)CN4CCN(c5ccc(Nc6ncc7c(C)c(C(C)=O)c(=O)n(C8CCCC8)c7n6)nc5)CC4)C3)C2)n1` (stereo not drawn) [CPD-100, 2-((6-(2-(4-(6-((6-Acetyl-8-cyclopentyl-5-methyl-7-oxo-7,8-dihydropyrido[2,3-d]pyrimidin-2-yl)amino)pyridin-3-yl)piperazin-1-yl)acetamido)spiro[3.3]heptan-2-yl)amino)-6-(methylamino)-N-(1H-pyrazol-3-yl)nicotinamide] in this work.
An inhibition at 0.04 µM of 50 to 80% and an inhibition at 0.2 µM of 50 to 80% were found for `CNc1ccc(C(=O)Nc2ccc(N(C)C)nn2)c(NCCCC2CN(C(=O)CN3CCN(c4ccc(Nc5ncc6c(C)c(C(C)=O)c(=O)n(C7CCCC7)c6n5)nc4)CC3)C2)n1` [CPD-102, 2-((3-(1-(2-(4-(6-((6-Acetyl-8-cyclopentyl-5-methyl-7-oxo-7,8-dihydropyrido[2,3-d]pyrimidin-2-yl)amino)pyridin-3-yl)piperazin-1-yl)acetyl)azetidin-3-yl)propyl)amino)-N-(6-(dimethylamino)pyridazin-3-yl)-6-(methylamino)nicotinamide] in this work.
An inhibition at 0.04 µM of less than 30% and an inhibition at 0.2 µM of less than 30% were found for `CNc1ccc(C(=O)Nc2ccc(N)nn2)c(NCCCCCNC(=O)CN2CCN(c3ccc(Nc4ncc5c(C)c(C(C)=O)c(=O)n(C6CCCC6)c5n4)nc3)CC2)n1` [CPD-104, 2-((5-(2-(4-(6-((6-Acetyl-8-cyclopentyl-5-methyl-7-oxo-7,8-dihydropyrido[2,3-d]pyrimidin-2-yl)amino)pyridin-3-yl)piperazin-1-yl)acetamido)pentyl)amino)-N-(6-aminopyridazin-3-yl)-6-(methylamino)nicotinamide] in this work.
An inhibition at 0.04 µM of less than 30% and an inhibition at 0.2 µM of 50 to 80% were found for `CNc1ccc(C(=O)Nc2ccc(C)nn2)c(NCCCCCNC(=O)CN2CCN(c3ccc(Nc4ncc5c(C)c(C(C)=O)c(=O)n(C6CCCC6)c5n4)nc3)CC2)n1` [CPD-105, 2-((5-(2-(4-(6-((6-Acetyl-8-cyclopentyl-5-methyl-7-oxo-7,8-dihydropyrido[2,3-d]pyrimidin-2-yl)amino)pyridin-3-yl)piperazin-1-yl)acetamido)pentyl)amino)-6-(methylamino)-N-(6-methylpyridazin-3-yl)nicotinamide] in this work.
An inhibition at 0.04 µM of 30 to 50% and an inhibition at 0.2 µM of 50 to 80% were found for `CNc1ccc(C(=O)Nc2ccc(N(C)C)nn2)c(NC2CCN(CCNC(=O)CN3CCN(c4ccc(Nc5ncc6c(C)c(C(C)=O)c(=O)n(C7CCCC7)c6n5)nc4)CC3)C2)n1` (stereo not drawn) [CPD-106, 2-((1-(2-(2-(4-(6-((6-Acetyl-8-cyclopentyl-5-methyl-7-oxo-7,8-dihydropyrido[2,3-d]pyrimidin-2-yl)amino)pyridin-3-yl)piperazin-1-yl)acetamido)ethyl)pyrrolidin-3-yl)amino)-N-(6-(dimethylamino)pyridazin-3-yl)-6-(methylamino)nicotinamide] in this work.
An inhibition at 0.04 µM of less than 30% and an inhibition at 0.2 µM of less than 30% were found for `CNc1ccc(C(=O)Nc2ccc(N(C)C)nn2)c(NC2CN(CCNC(=O)CN3CCN(c4ccc(Nc5ncc6c(C)c(C(C)=O)c(=O)n(C7CCCC7)c6n5)nc4)CC3)C2)n1` [CPD-107, 2-((1-(2-(2-(4-(6-((6-Acetyl-8-cyclopentyl-5-methyl-7-oxo-7,8-dihydropyrido[2,3-d]pyrimidin-2-yl)amino)pyridin-3-yl)piperazin-1-yl)acetamido)ethyl)azetidin-3-yl)amino)-N-(6-(dimethylamino)pyridazin-3-yl)-6-(methylamino)nicotinamide] in this work.
An inhibition at 0.04 µM of 30 to 50% and an inhibition at 0.2 µM of 30 to 50% were found for `CNc1ccc(C(=O)Nc2ccc(OC)nn2)c(NCCCCCNC(=O)CN2CCN(c3ccc(Nc4ncc5c(C)c(C(C)=O)c(=O)n(C6CCCC6)c5n4)nc3)CC2)n1` [CPD-108, 2-((5-(2-(4-(6-((6-Acetyl-8-cyclopentyl-5-methyl-7-oxo-7,8-dihydropyrido[2,3-d]pyrimidin-2-yl)amino)pyridin-3-yl)piperazin-1-yl)acetamido)pentyl)amino)-N-(6-methoxypyridazin-3-yl)-6-(methylamino)nicotinamide] in this work.
An inhibition at 0.04 µM of 50 to 80% and an inhibition at 0.2 µM of 50 to 80% were found for `CNc1ccc(C(=O)Nc2ccc(C)c(C)n2)c(NCCCCCNC(=O)CN2CCN(c3ccc(Nc4ncc5c(C)c(C(C)=O)c(=O)n(C6CCCC6)c5n4)nc3)CC2)n1` [CPD-109, 2-((5-(2-(4-(6-((6-Acetyl-8-cyclopentyl-5-methyl-7-oxo-7,8-dihydropyrido[2,3-d]pyrimidin-2-yl)amino)pyridin-3-yl)piperazin-1-yl)acetamido)pentyl)amino)-N-(5,6-dimethylpyridin-2-yl)-6-(methylamino)nicotinamide] in this work.
An inhibition at 0.04 µM of less than 30% and an inhibition at 0.2 µM of 50 to 80% were found for `CNc1ccc(NC(=O)c2ccc(NC)nc2NCCCCCNC(=O)CN2CCN(c3ccc(Nc4ncc5c(C)c(C(C)=O)c(=O)n(C6CCCC6)c5n4)nc3)CC2)nn1` [CPD-110, 2-((5-(2-(4-(6-((6-Acetyl-8-cyclopentyl-5-methyl-7-oxo-7,8-dihydropyrido[2,3-d]pyrimidin-2-yl)amino)pyridin-3-yl)piperazin-1-yl)acetamido)pentyl)amino)-6-(methylamino)-N-(6-(methylamino)pyridazin-3-yl)nicotinamide] in this work.
An inhibition at 0.04 µM of less than 30% and an inhibition at 0.2 µM of 50 to 80% were found for `CNc1ccc(C(=O)Nc2ccc(C)c(C(C)C)n2)c(NCCCCCNC(=O)CN2CCN(c3ccc(Nc4ncc5c(C)c(C(C)=O)c(=O)n(C6CCCC6)c5n4)nc3)CC2)n1` [CPD-111, 2-((5-(2-(4-(6-((6-Acetyl-8-cyclopentyl-5-methyl-7-oxo-7,8-dihydropyrido[2,3-d]pyrimidin-2-yl)amino)pyridin-3-yl)piperazin-1-yl)acetamido)pentyl)amino)-N-(6-isopropyl-5-methylpyridin-2-yl)-6-(methylamino)nicotinamide] in this work.
